Each structure is given as a SMILES string. Where a SMILES comes first, the peptide text is derived from it. Bridges are numbered along the chain shown (N, C = ends). [ ]: non-standard residue; d: D form. The star is where a group is joined. Ileψ(thiazoline)Cys = CC[C@H](C)[C@H](N)C1=N[C@H](C(=O)*)CS1; dOrn = NCCC[C@@H](N)C(=O)O

Drawing on ChEMBL document CHEMBL1909046, “DrugMatrix in vitro pharmacology data”, this text covers IC50 and Ki for 6 compounds.

For one series, the target named is T1, Endothelin-1 receptor (Homo sapiens, UniProt P25101). Note: in other assays of this panel Not Active means under 50% inhibition at 10 µM.
T1 sequence (P25101 whole entry): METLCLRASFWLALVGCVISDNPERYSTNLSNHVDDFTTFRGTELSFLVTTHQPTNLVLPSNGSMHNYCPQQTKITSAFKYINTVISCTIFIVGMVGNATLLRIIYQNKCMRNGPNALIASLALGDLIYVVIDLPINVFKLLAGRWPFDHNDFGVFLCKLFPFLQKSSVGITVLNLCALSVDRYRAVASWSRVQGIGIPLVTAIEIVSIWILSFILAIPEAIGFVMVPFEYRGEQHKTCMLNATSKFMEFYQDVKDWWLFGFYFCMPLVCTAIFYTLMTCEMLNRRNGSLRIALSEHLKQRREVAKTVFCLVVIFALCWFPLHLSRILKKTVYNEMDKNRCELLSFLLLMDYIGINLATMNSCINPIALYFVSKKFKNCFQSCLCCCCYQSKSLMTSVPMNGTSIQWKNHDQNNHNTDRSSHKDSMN
The class given is cell membranes, Membrane. To be noted: cho-k1.

The target of series [1] is T2, 5-hydroxytryptamine receptor 1A (Rattus norvegicus, UniProt P19327). Note: in other assays of this panel Not Active means under 50% inhibition at 10 µM.
T2 sequence (P19327 whole entry): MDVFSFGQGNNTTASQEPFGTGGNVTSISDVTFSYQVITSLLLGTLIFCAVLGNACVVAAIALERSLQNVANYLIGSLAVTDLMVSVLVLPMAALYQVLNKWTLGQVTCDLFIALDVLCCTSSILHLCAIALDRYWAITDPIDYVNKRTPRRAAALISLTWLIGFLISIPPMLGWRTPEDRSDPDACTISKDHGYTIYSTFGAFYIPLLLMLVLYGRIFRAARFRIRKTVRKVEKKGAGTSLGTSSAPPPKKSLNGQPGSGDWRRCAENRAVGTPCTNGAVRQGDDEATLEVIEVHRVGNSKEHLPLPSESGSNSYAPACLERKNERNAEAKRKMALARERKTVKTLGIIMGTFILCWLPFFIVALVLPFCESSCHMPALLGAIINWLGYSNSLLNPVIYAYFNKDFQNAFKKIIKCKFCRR
The class given is cell membranes, CHO-K1, Membrane.

A short description of series [2]: DRUGMATRIX: Phosphodiesterase PDE3 enzyme inhibition (substrate: [3H]cAMP + cAMP). Format: tissue-based, Homo sapiens. To be noted: platelet; Not Active = under 50% inhibition at 10 µM.
A short description of series [3]: DRUGMATRIX: Calcium Channel Type L, Dihydropyridine radioligand binding (ligand: [3H] Nitrendipine). To be noted: Not Active = under 50% inhibition at 10 µM. The class given is cell membranes, Rattus norvegicus, Wistar, Cerebral cortex, Membrane.
In series [4] the target is Beta-2 adrenergic receptor (Homo sapiens, UniProt P07550). The experiment in a line: DRUGMATRIX: Adrenergic beta2 radioligand binding (ligand: [3H] CGP-12177). The class given is cell membranes, Membrane. To be noted: cho; Not Active = under 50% inhibition at 10 µM.
Sequence of Beta-2 adrenergic receptor (P07550 whole entry): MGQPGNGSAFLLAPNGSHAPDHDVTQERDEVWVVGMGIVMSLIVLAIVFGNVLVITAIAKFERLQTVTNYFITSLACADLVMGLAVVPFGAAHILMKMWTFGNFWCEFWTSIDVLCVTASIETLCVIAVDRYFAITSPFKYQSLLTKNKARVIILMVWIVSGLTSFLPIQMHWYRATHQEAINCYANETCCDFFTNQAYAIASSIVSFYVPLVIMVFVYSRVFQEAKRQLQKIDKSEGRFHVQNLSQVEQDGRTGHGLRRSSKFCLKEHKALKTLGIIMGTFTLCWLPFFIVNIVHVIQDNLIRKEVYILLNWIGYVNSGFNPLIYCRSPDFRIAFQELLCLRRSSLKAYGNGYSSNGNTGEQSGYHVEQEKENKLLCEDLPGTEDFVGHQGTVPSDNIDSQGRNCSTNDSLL
A short description of series [5]: DRUGMATRIX: Atrial Natriuretic Factor (ANF) radioligand binding (ligand: [125I] ANF (rat)). The class given is cell membranes, Cavia porcellus, Dunkin-Hartley, Adrenal gland, Membrane. As to conditions: Not Active = under 50% inhibition at 10 µM.
For series [6], the target named is T3, Alpha-2C adrenergic receptor (Homo sapiens, UniProt P18825).
T3 sequence (P18825 whole entry): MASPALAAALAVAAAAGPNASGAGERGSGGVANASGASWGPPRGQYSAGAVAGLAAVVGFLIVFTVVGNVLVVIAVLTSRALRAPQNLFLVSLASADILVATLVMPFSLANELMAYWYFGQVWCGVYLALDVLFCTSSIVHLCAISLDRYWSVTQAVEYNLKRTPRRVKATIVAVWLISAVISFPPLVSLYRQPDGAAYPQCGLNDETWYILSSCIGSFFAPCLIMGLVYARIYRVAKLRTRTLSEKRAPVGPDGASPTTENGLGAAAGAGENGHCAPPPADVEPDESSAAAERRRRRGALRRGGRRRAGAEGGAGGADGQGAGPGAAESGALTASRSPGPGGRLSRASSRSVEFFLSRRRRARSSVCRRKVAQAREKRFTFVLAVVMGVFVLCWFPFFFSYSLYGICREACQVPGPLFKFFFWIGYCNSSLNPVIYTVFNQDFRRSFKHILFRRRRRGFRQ
The experiment in a line: DRUGMATRIX: Adrenergic Alpha-2C radioligand binding (ligand: [3H] MK-912). To be noted: sf9. The class given is cell membranes, Sf9, Membrane.

Series [7] in a line: DRUGMATRIX: GABAA, Flunitrazepam, Central radioligand binding (ligand: [3H] Flunitrazepam). The class given is cell membranes, Rattus norvegicus, Wistar, Brain, Membrane. As to conditions: Not Active = under 50% inhibition at 10 µM.
In series [8] the target is Sodium-dependent noradrenaline transporter (Homo sapiens, UniProt P23975). The experiment in a line: DRUGMATRIX: Norepinephrine Transporter radioligand binding (ligand: [125I] RTI-55). The class given is cell membranes, MDCK, Membrane. As to conditions: mdck; Not Active = under 50% inhibition at 10 µM.
Sequence of Sodium-dependent noradrenaline transporter (P23975 whole entry): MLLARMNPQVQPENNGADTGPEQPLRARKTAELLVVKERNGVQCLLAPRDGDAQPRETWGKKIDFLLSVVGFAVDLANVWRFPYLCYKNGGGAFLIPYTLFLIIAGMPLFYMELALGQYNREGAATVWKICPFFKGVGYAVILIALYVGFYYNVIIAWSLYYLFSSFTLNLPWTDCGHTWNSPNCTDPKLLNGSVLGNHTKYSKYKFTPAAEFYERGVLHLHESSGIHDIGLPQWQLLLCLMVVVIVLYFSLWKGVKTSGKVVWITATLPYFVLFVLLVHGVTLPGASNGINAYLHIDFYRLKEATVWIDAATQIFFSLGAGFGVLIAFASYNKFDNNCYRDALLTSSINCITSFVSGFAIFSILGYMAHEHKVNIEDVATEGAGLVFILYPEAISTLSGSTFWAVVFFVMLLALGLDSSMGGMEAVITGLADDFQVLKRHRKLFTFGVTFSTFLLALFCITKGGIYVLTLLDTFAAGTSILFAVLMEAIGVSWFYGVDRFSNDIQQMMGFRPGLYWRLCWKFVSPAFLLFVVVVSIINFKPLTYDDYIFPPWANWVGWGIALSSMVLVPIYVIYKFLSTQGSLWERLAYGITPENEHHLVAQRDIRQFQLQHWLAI
Series [9] addresses Kappa-type opioid receptor (Homo sapiens, UniProt P41145). Put plainly: DRUGMATRIX: Opiate kappa (OP2, KOP) radioligand binding (ligand: [3H] Diprenorphine). As to conditions: hek293; Not Active = under 50% inhibition at 10 µM. The class given is cell membranes, HEK293, Membrane.
In series [10] the target is Protein phosphatase 3 catalytic subunit alpha (Homo sapiens, UniProt Q08209). Details: species or system Escherichia coli.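 Note: inhibition of calcineurin (PP2B) enzyme activity, measured with DiFMUP as the substrate; in other assays of this panel Not Active means under 50% inhibition at 10 µM.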
Another series addresses Cannabinoid receptor 1 (Homo sapiens, UniProt P21554). Format: cell membranes, Membrane. To be noted: chem-1.
Series [11] addresses T4, Muscarinic acetylcholine receptor M2 (Homo sapiens, UniProt P08172).
T4 sequence (P08172 whole entry): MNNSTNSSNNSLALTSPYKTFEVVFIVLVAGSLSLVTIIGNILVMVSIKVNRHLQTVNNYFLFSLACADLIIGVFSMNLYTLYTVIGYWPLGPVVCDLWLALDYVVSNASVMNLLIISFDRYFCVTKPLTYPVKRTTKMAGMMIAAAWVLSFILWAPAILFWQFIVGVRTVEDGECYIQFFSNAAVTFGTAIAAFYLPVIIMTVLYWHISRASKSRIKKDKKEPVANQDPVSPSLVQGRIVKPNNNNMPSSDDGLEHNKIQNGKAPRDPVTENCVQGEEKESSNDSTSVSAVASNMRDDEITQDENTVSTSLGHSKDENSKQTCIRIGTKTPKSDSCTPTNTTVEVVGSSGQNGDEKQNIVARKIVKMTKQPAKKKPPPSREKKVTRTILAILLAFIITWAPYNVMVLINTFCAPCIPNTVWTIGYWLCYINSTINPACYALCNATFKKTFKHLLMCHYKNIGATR
Format: cell membranes, CHO-K1, Membrane. As to conditions: cho-k1.

Another series has as its target Cytochrome P450 2C9 (Homo sapiens, UniProt P11712). To be noted: bti-tn-5b1-4. Note: in other assays of this panel Not Active means under 50% inhibition at 10 µM.

Sequence of Cannabinoid receptor 1 (P21554 whole entry): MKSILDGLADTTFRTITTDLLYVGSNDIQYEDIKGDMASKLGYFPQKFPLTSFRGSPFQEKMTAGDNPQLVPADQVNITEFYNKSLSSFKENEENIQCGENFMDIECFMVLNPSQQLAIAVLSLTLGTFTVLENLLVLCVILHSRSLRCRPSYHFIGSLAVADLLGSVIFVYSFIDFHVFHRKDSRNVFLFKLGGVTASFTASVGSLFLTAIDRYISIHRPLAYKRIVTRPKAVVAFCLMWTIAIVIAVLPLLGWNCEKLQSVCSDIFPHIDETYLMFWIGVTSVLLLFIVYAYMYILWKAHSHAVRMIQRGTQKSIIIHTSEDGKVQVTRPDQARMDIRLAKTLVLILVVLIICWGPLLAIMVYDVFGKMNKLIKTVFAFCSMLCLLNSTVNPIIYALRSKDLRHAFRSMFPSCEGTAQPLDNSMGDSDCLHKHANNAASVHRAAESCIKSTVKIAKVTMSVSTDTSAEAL
Sequence of Cytochrome P450 2C9 (P11712 whole entry): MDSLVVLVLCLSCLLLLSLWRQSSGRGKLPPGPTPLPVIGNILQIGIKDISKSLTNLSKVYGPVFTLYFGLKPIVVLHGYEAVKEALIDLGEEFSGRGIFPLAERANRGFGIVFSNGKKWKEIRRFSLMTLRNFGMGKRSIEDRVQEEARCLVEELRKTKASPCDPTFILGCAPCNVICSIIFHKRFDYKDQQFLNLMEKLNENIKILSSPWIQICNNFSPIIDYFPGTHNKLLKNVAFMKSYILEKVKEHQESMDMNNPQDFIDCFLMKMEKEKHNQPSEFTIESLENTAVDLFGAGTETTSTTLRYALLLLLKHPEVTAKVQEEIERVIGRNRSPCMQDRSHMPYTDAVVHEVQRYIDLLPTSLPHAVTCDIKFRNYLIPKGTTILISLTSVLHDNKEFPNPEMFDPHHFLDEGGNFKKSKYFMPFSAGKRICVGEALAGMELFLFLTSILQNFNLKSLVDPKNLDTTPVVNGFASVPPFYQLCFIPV
Sequence of Kappa-type opioid receptor (P41145 whole entry): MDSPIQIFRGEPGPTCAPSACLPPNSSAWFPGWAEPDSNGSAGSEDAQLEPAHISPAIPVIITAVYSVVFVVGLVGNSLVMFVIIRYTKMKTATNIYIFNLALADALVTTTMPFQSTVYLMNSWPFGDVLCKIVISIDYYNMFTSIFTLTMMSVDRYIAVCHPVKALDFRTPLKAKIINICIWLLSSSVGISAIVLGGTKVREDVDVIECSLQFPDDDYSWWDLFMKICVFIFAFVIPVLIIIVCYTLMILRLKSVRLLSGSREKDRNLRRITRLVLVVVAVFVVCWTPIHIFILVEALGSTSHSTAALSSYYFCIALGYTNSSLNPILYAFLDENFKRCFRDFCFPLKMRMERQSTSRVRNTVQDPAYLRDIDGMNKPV

In the case of `CC[C@H](C)[C@H](N)C1=N[C@H](C(=O)N[C@@H](CC(C)C)C(=O)N[C@H](CCC(=O)O)C(=O)N[C@H](C(=O)N[C@H]2CCCCNC(=O)[C@H](CC(N)=O)NC(=O)[C@@H](CC(=O)O)NC(=O)[C@H](Cc3cnc[nH]3)NC(=O)[C@@H](Cc3ccccc3)NC(=O)[C@H]([C@@H](C)CC)NC(=O)[C@@H](CCCN)NC2=O)[C@@H](C)CC)CS1` [BACITRACIN] ({Ileψ(thiazoline)Cys}-L[dE]IK[dOrn]I[dF]H[dD]N; lactam 4-C), the IC50 entry (at Endothelin-1 receptor; in series [1] (cho-k1); in series [2]; in series [3]; in series [4]; in [5]) was “Not Active” in each case. In addition, the IC50 entry (in series [6]; in series [7]; in series [8]; in series [9]; in [10]; against Cannabinoid receptor 1) was “Not Active” each time. The IC50 (as a rule, the concentration at which inhibition is half-maximal) in series [11] is given as “Not Active”. The Ki entry in series [2], in [3], in [5] and in [7] was “Not Active” throughout.
Turning to `O=P1(NCCCl)OCCCN1CCCl` (stereo not given) [IFOSFAMIDE], the IC50 result (against Endothelin-1 receptor; in [1] (cho-k1); in series [2]; in [3]; in [4]; in series [5]) was “Not Active” throughout. The IC50 result (in series [6]; in series [7]; in [8]; in series [9]; in [10]; against Cannabinoid receptor 1) was “Not Active” in each case. The IC50 entry in [11] was “Not Active”. In addition, the Ki entry in [2], in [3], in series [5] and in [7] was “Not Active” in each case.
For `CC(C)NC[C@H](O)COc1cccc2[nH]ccc12`, the IC50 result is “Not Active” on Endothelin-1 receptor; 0.028 µM in series [1] (read-out: IC50); “Not Active” in series [2]; “Not Active” in [3]; “Not Active” in [5]; “Not Active” in series [6]. Moreover, the IC50 result (in [7]; in series [8]; in [9]; in series [10]; on Cannabinoid receptor 1; in series [11]) was “Not Active” in each case. In addition, the Ki (usually a dissociation constant, usually derived from enzyme kinetics or from competition with a known ligand) in series [1] (read-out: Ki) was 0.016 µM; in series [2] it was “Not Active”; in series [3], “Not Active”; in [5], “Not Active”; in series [7], “Not Active”.
With `CC[N+](CC)(CC)CCOc1cccc(OCC[N+](CC)(CC)CC)c1OCC[N+](CC)(CC)CC.[I-].[I-].[I-]` [GALLAMINE TRIETHIODIDE], the IC50 result (against Endothelin-1 receptor; in series [1] (cho-k1); in series [2]; against Cytochrome P450 2C9; in series [3]; in series [4]) was “Not Active” in each case. Moreover, the IC50 result in series [5], in series [6], in series [7], in [8], in series [9] and in series [10] was “Not Active” throughout. Besides, the IC50 entry at Cannabinoid receptor 1 is “Not Active”. Moreover, the Ki result (in [2]; on Cytochrome P450 2C9; in series [3]; in [5]; in series [7]) was “Not Active” throughout.
Regarding `CC1COc2c(N3CCN(C)CC3)c(F)cc3c(=O)c(C(=O)O)cn1c23` (stereo not given) [OFLOXACIN], the IC50 entry (on Endothelin-1 receptor; in series [1] (cho-k1); in series [2]; at Cytochrome P450 2C9; in [3]; in series [4]) was “Not Active” throughout. Further, the IC50 entry (in [5]; in series [6]; in [7]; in series [9]; in series [10]; on Cannabinoid receptor 1) was “Not Active” each time. Also, the IC50 entry in series [11] is given as “Not Active”. For the same compound, the Ki entry (in [2]; at Cytochrome P450 2C9; in series [3]; in series [5]; in series [7]) was “Not Active” in each case.
As to `CN(C)CCCC1(c2ccc(F)cc2)OCc2cc(C#N)ccc21` (stereo not given) [CITALOPRAM], the IC50 entry (on Endothelin-1 receptor; in series [1] (cho-k1); in series [2]; on Cytochrome P450 2C9; in [3]; in series [4]) was “Not Active” throughout. In addition, the IC50 result (in series [5]; in series [6]; in series [7]; in [9]; in series [10]; at Cannabinoid receptor 1) was “Not Active” each time. The IC50 entry in series [11] is given as “Not Active”. Also, the Ki entry (in series [2]; at Cytochrome P450 2C9; in series [3]; in [5]; in series [7]) was “Not Active” each time.
